In patent publication US9170257B2 (priority 2012, dated 2015):
Like-named read-outs stand apart in the source and are kept apart here.

Assay: Plasma pharmacokinetics of curcumin and THC during and after intravenous infusion of liposomal curcumin
Type: in vivo, Beagle dogs
Procedure: The results and analysis for the study are presented for intravenous infusion dosing of a total dose of 10 mg/kg infused over a period of either 2 or 8 hours. Plasma levels of curcumin and its metabolite, THC were measured at timed intervals post-dosing.
For the 2 hour infusion, blood samples were taken at predose and 0.25, 0.5, 1.5 and at 2 hours during infusion and at 15 minutes post-infusion. For the 8 hour infusion, blood samples were taken at predose and 0.25, 0.5, 1.5, […] and at 8 hours during infusion and at 15 minutes post-infusion.
Bioanalysis was performed on two sets of samples, one set that was treated with phosphoric acid and one set that was not treated with phosphoric acid. […] Values that were below the limit of quantification were assigned a value of 0.
Plasma concentration vs. time profiles were analyzed using (unless otherwise stated) the data from 4 dogs. Plasma profiles for the test articles are presented as the mean data±SE of 4 dogs. Average plasma concentrations were used to perform the PK analysis. Plasma concentration vs. time profiles were analyzed and the PK parameters estimated using WinNonlin Version 5.2.1 employing the intravenous infusion model with first order elimination. Unless stated otherwise, the plasma concentration-time profiles for the test articles are presented as the mean data±SE of 4 dogs.

[1] = both sexes, Beagle, dog, in vivo, 10 mg/kg, 1.25 mg/kg/hr, mean±SE, read-out: [Plasma + PO4]
[2] = both sexes, Beagle, dog, in vivo, 10 mg/kg, 1.25 mg/kg/hr, mean±SE, read-out: [Plasma]
[3] = both sexes, Beagle, dog, in vivo, 10 mg/kg, 5 mg/kg/hr, mean±SE, read-out: [Plasma + PO4]
[4] = both sexes, Beagle, dog, in vivo, 10 mg/kg, 5 mg/kg/hr, mean±SE, read-out: [Plasma]

SMILES: COc1cc(CCC(=O)CC(=O)CCc2ccc(O)c(OC)c2)ccc1O [THC, tetrahydrocurcumin]
- Ke (2 hour i.v. infusion, total dose 10 mg/kg, fitted): 1.4 h⁻¹
- ratio of THC to curcumin based on AUC (2 hour infusion): 9.6
- ratio of THC to curcumin based on AUC (8 hour infusion): 6.3
- Plasma THC levels higher than curcumin (at both infusion rates (2 and 8 hours)): 6.3-9.6 fold
- concentration at 15 min [1]: 59 ± 24 ng/mL
- concentration at 15 min [2]: 72 ± 15 ng/mL
- concentration at 30 min [1]: 121 ± 28 ng/mL
- concentration at 30 min [2]: 63 ± 15 ng/mL
- concentration at 90 min [1]: 293 ± 73 ng/mL
- concentration at 90 min [2]: 64 ± 14 ng/mL
- concentration at 2 hr [1]: 226 ± 64 ng/mL
- concentration at 2 hr [2]: 68 ± 11 ng/mL
- concentration at 4 hr [1]: 193 ± 127 ng/mL
- concentration at 4 hr [2]: 77 ± 8 ng/mL
- concentration at 6 hr [1]: 64 ± 10 ng/mL
- concentration at 6 hr [2]: 0 ng/mL
- concentration at 8 hr [1]: 62 ± 26 ng/mL
- concentration at 8 hr [2]: 67 ± 29 ng/mL
- concentration at 15 min [3]: 284 ± 89 ng/mL
- concentration at 15 min [4]: 483 ± 50 ng/mL
- concentration at 30 min [3]: 1120 ± 318 ng/mL
- concentration at 30 min [4]: 566 ± 77 ng/mL
- concentration at 90 min [3]: 2350 ± 441 ng/mL
- concentration at 90 min [4]: 891 ± 238 ng/mL
- concentration at 2 hr [4]: 454 ± 79 ng/mL
- AUC (both sexes, Beagle, dog, in vivo, iv, 10 mg/kg, 2 hr infusion + phosphate, AUC to 15 min post-infusion, read-out: AUC): 3800 ng·h/mL
- AUC (both sexes, Beagle, dog, in vivo, iv, 10 mg/kg, 8 hr infusion + Phosphate, AUC to 15 min post-infusion, read-out: AUC): 1170 ng·h/mL
- AUC (both sexes, Beagle, dog, in vivo, iv, 10 mg/kg, 8 hr infusion, 10 mg/kg, plasma without phosphoric acid, AUC to 15 min post-infusion, read-out: AUC): 411 ng·h/mL
- Cmax (both sexes, Beagle, dog, in vivo, iv, 10 mg/kg, 8 hr infusion, plasma without phosphoric acid, observed, read-out: Cmax): 77 ng/mL
- concentration at 2 h (both sexes, beagle, dog, in vivo, 10 mg/kg, 5 mg/kg/hr, 2 hr (end of infusion), mean±SE, read-out: [Plasma + PO4]): 2980 ± 852 ng/mL
- AUC (both sexes, beagle, dog, in vivo, iv, 10 mg/kg, 2 hour i.v. infusion, total dose 10 mg/kg, fitted, first-order elimination infusion model, read-out: AUC (estimated PK parameter)): 5180 ng·h/mL
- Cmax (both sexes, beagle, dog, in vivo, iv, 10 mg/kg, 2 hour i.v. infusion, total dose 10 mg/kg, fitted, first-order elimination infusion model, read-out: Cmax (estimated PK parameter)): 2430 ng/mL
- AUC (both sexes, beagle, dog, in vivo, iv, 10 mg/kg, 2 hour infusion, + phosphoric acid, read-out: calculated AUC (observed)): 3800 ng·h/mL
- Cmax (both sexes, beagle, dog, in vivo, iv, 10 mg/kg, 2 hr infusion + phosphate, observed, read-out: Cmax): 2980 ng/mL
- AUC (both sexes, beagle, dog, in vivo, iv, 10 mg/kg, 2 hr infusion, 10 mg/kg, plasma without phosphoric acid, AUC to 15 min post-infusion, read-out: AUC): 1320 ng·h/mL
- Cmax (both sexes, beagle, dog, in vivo, iv, 10 mg/kg, 2 hr infusion, plasma without phosphoric acid, observed, read-out: Cmax): 891 ng/mL
- Cmax (both sexes, beagle, dog, in vivo, iv, 10 mg/kg, 8 hr infusion + Phosphate, observed, read-out: Cmax): 293 ng/mL
- MRT (both sexes, beagle, dog, in vivo, iv, 2 hour i.v. infusion, total dose 10 mg/kg, fitted, read-out: MRT): 42 min
- half-life (both sexes, beagle, dog, in vivo, iv, 2 hour i.v. infusion, total dose 10 mg/kg, fitted, read-out: t1/2(e) (converted)): 30 min
- ratio of plasma THC to curcumin (two infusion rates): 6.3-9.6
